US8268865B2, “Quaternary alkyl ammonium bacterial efflux pump inhibitors and therapeutic uses thereof” (Rempex Pharmaceuticals, Inc., priority 2007, dated 2012)
Like-named read-outs stand apart in the source and are kept apart here.

Tests used:
[1] = tested on: P. aeruginosa strain PAM1723 overexpressing MexAB-OprM; test: Checkerboard assay: potentiation of in vitro antibacterial activity of levofloxacin by efflux pump inhibitors; type: cell-based; conditions: for MPC8: lowest inhibitor concentration giving antibacterial activity with levofloxacin at 1/8 of its MIC; for MPC8 / MPC32: PAM1723, MHB, 20 h at 35° C.; for MPC32: lowest inhibitor concentration giving antibacterial activity with levofloxacin at 1/32 of its MIC
Protocol: EPI activity was recorded as concentration of an EPI compound that is necessary to increase susceptibility to levofloxacin of the strain of P. aeruginosa, PAM1723, overexpressing the MexAB-OprM efflux pump eight-fold. The levofloxacin potentiating activity of the test compounds was assessed by the checkerboard assay (Antimicrobial Combinations, Antibiotics in Laboratory Medicine, Ed. Victor Lorian, M.D., Fourth edition, 1996, pp 333-338, which is incorporated herein by reference in its entirety) using a broth microdilution method performed as recommended by the NCCLS (National Committee for Clinical Laboratory Standards (NCCLS), 1997, Methods for Dilution of Antimicrobial Susceptibility Tests for Bacteria That Grow Aerobically, Fourth Edition; Approved Standard. NCCLS Document M7-A4, Vol 17 No. 2, which is incorporated herein by reference in its entirety). In this assay, multiple dilutions of two drugs, namely an EPI and levofloxacin, were tested, alone and in combination, at concentrations equal to, above and below their respective minimal inhibitory concentrations (MICs). All EPI compounds were readily soluble in water and stock solutions were prepared at a final concentration of 10 mg/ml. Stock solutions were further diluted, according to the needs of the particular assay, in Mueller Hinton Broth (MHB). Stock solution was stored at −80° C.
The checkerboard assay was performed in microtiter plates. Levofloxacin was diluted in the x-axis, each column containing a single concentration of levofloxacin. EPIs were diluted in the y-axis, each row containing a single concentration of an EPI. The result of these manipulations was that each well of the microtiter plate contained a unique combination of concentrations of the two agents. The assay was performed in MHB with a final bacterial inoculum of 5×105 CFU/ml (from an early-log phase culture). Microtiter plates were incubated during 20 h at 35° C. and were read using a microtiterplate reader (Molecular Devices) at 650 nm as well as visual observation using a microtiter plate-reading mirror.
In the experiment depicted in Table 1, potentiating activities of selected inhibitors are reported as Minimum Potentiating Concentration MPC8 values (or MPC32) which correspond to the lowest concentration of the inhibitor required to achieve antibacterial activity in combination with the concentration of levofloxacin equal to ⅛ (or 1/32) of the levofloxacin concentration required to achieve the same antibacterial effect alone (MIC of levofloxacin).

[2] = Rat serum pharmacokinetics after 1.5-hour IV infusion; type: in vivo; conditions: for clearance: read-out: Clearance (free drug clearance) (converted)
Protocol: In the experiment depicted in Table 2, rat serum pharmacokinetics of compounds selected inhibitor compounds was evaluated after 1.5-hour IV infusion of 1.5 ml solution of corresponding efflux pump inhibitor in 0.9% saline. Depending on the concentration used the total infused dose was 10 or 20 mg/kg. A two-compartment model was used to fit the data and calculate PK parameters.

[3] = rat serum, 1.5-hour IV infusion, dose 20 mg/kg, two-compartment model
[4] = rat serum, 1.5-hour IV infusion, dose 10 mg/kg, two-compartment model
[5] = rat serum, 1.5-hour IV infusion, dose 10 mg/kg, read-out: Cmax
[6] = rat serum, 1.5-hour IV infusion, dose 20 mg/kg, read-out: Cmax
[7] = rat, IV infusion, comparison among compounds of Table 2

| Compound | clearance [2, 4] | Cmax [2, 5] | clearance [2, 3] | Cmax [2, 6] | also measured |
| --- | --- | --- | --- | --- | --- |
| 3-[(2R)-2-[(4S)-1-N,1-N-bis(2-azaniumylethyl)-4-formamido-1-N-methylbutane-1,4-bis(aminium)]-4-phenylbutanamido]-1-{[4-(trifluoromethyl)phenyl]methyl}quinolin-1-ium pentachloride [Compound 53] |  |  |  |  | MPC8 [1]: 2.5 µg/mL; MPC32 [1]: 5 µg/mL |
| 3-{2-[(4S)-1-N,1-N-bis(2-azaniumylethyl)-4-(N-methylformamido)-1-N-(prop-2-en-1-yl)butane-1,4-bis(aminium)]-3-[4-(trifluoromethyl)phenyl]propanamido}quinolin-1-ium pentachloride [Compound 92] |  |  |  |  | MPC8 [1]: 0.312 µg/mL; MPC32 [1]: 0.625 µg/mL; Cmax ([2]; rat serum, 1.5-hour IV infusion, dose 20 mg/kg): 18300 ng/mL; Clearance (free drug clearance) [2, 3]: 26.5 mL/min/kg |
| C[N+](C)(CCN)CCC[C@H](N)C(=O)N[C@H](CCc1ccccc1)C(=O)Nc1cnc2ccccc2c1 [Compound 4, 3-[(2S)-2-[(4R)-1-N-(2-azaniumylethyl)-4-formamido-1-N,1-N-dimethylbutane-1,4-bis(aminium)]-4-phenylbutanamido]quinolin-1-ium tetrachloride] | 21.5 mL/min/kg | 13400 ng/mL |  |  |  |
| C[N+](C)(CCN)CCC[C@H](N)C(=O)N[C@H](CCc1ccccc1)C(=O)Nc1ccc(F)c(F)c1F [Compound 5, [(4S)-4-azaniumyl-4-{[(1R)-3-phenyl-1-[(2,3,4-trifluorophenyl)carbamoyl]propyl]carbamoyl}butyl](2-azaniumylethyl)dimethylazanium trichloride] |  |  | 20.5 mL/min/kg | 19600 ng/mL |  |
| C[N+](CCN)(CCN)CCC[C@H](N)C(=O)N[C@H](Cc1ccc(C(F)(F)F)cc1)C(=O)Nc1cnc2ccccc2c1 [Compound 10, 3-[(2R)-2-[(4S)-1-N,1-N-bis(2-azaniumylethyl)-4-formamido-1-N-methylbutane-1,4-bis(aminium)]-3-[4-(trifluoromethyl)phenyl]propanamido]quinolin-1-ium pentachloride] | 5.17 mL/min/kg | 30600 ng/mL |  |  | efflux pump inhibitory activity (in words) ([1]; comparison among tested compounds): one of the best efflux pump inhibitory activities; free drug clearance (in words) [2, 7]: lowest free drug clearance; serum PK profile (in words) [2, 7]: best serum PK profiles |
| C[N+](CCN)(CCN)CCC[C@H](N)C(=O)N[C@@H](Cc1ccc(C(F)(F)F)cc1)C(=O)Nc1cnc2ccccc2c1 [Compound 11, 3-[(2R)-2-[(4R)-1-N,1-N-bis(2-azaniumylethyl)-4-formamido-1-N-methylbutane-1,4-bis(aminium)]-3-[4-(trifluoromethyl)phenyl]propanamido]quinolin-1-ium pentachloride] | 47.8 mL/min/kg | 7300 ng/mL |  |  |  |
| C[N+](CCN)(CCN)CCC[C@H](N)C(=O)N[C@@H](CC1CCCCC1)C(=O)Nc1cnc2ccccc2c1.Cl.Cl.Cl.Cl.[Cl-] [Compound 25, 3-[(2S)-2-[(4S)-1-N,1-N-bis(2-azaniumylethyl)-4-formamido-1-N-methylbutane-1,4-bis(aminium)]-3-cyclohexylpropanamido]quinolin-1-ium pentachloride] | 16.7 mL/min/kg | 13000 ng/mL |  |  |  |
| Mixture of 3-[(2S,3R)-2-[(4S)-1-N,1-N-bis(2-azaniumylethyl)-4-formamido-1-N-methylbutane-1,4-bis(aminium)]-3-hydroxy-3-[4-(trifluoromethyl)phenyl]propanamido]quinolin-1-ium pentachloride 15a and 3-[(2R,3S)-2-[(4S)-1-N,1-N-bis(2-azaniumylethyl)-4-formamido-1-N-methylbutane-1,4-bis(aminium)]-3-hydroxy-3-[4-(trifluoromethyl)phenyl]propanamido]quinolin-1-ium pentachloride 15b [Compound 15] |  |  |  |  | MPC8 [1]: 0.312 µg/mL; MPC32 [1]: 0.625 µg/mL |

The next lines start with results.

| clearance [2, 4] | Cmax [2, 5] | clearance [2, 3] | Cmax [2, 6] | Compound | also measured |
| --- | --- | --- | --- | --- | --- |
|  |  | 5.83 mL/min/kg | 54600 ng/mL | C[N+](CCN)(CCN)CCC[C@H](N)C(=O)N[C@H](CCc1ccccc1)C(=O)Nc1cnc2ccccc2c1 [Compound 27, 3-[(2R)-2-[(4S)-1-N,1-N-bis(2-azaniumylethyl)-4-formamido-1-N-methylbutane-1,4-bis(aminium)]-4-phenylbutanamido]quinolin-1-ium pentachloride] | serum PK profile (in words) [2, 7]: best serum PK profiles |
| 14.2 mL/min/kg | 25600 ng/mL |  |  | C[N+](CCN)(CCN)CCC[C@H](N)C(=O)N[C@@H](CCc1ccccc1)C(=O)Nc1cnc2ccccc2c1.Cl.Cl.[Cl-] [Compound 29, 3-[(2S)-2-[(4S)-1-N,1-N-bis(2-azaniumylethyl)-4-formamido-1-N-methylbutane-1,4-bis(aminium)]-4-phenylbutanamido]quinolin-1-ium pentachloride] |  |
|  |  | 16.7 mL/min/kg | 63000 ng/mL | C[N+](CCN)(CCN)CCC[C@H](N)C(=O)N[C@H](CCc1ccc(C(F)(F)F)cc1)C(=O)Nc1cnc2ccccc2c1 [Compound 33, 3-[(2R)-2-[(4S)-1-N,1-N-bis(2-azaniumylethyl)-4-formamido-1-N-methylbutane-1,4-bis(aminium)]-4-[4-(trifluoromethyl)phenyl]butanamido]quinolin-1-ium pentachloride] |  |
|  |  | 10.8 mL/min/kg | 40200 ng/mL | C[C@@H](N)C(=O)N[C@@H](CCC[N+](C)(CCN)CCN)C(=O)N[C@@H](Cc1ccc(C(F)(F)F)cc1)C(=O)Nc1cnc2ccccc2c1 [Compound 44, 3-[(2S)-2-[(4S)—N,N-bis(2-azaniumylethyl)-4-formamido-4-[(1R)-1-formamidoethan-1-aminium]-N-methylbutan-1-aminium]-3-[4-(trifluoromethyl)phenyl]propanamido]quinolin-1-ium pentachloride] | serum PK profile (in words) [2, 7]: best serum PK profiles |
